Source: US6911470B1, “Polyoxometalate compounds as antiviral agents” (priority 1988, dated 2005)
pEC50: −log10 of the molar value. Where two headings read alike, the source gives them in different places.

What was measured:
[1] = molecular target: T1, HIV-1 reverse transcriptase (Human immunodeficiency virus type 1 group M subtype B, UniProt P04585); assay: Evaluation of compounds on purified retroviral RT (cell-free, virion-derived); assay type: biochemical; details: Table 2; read-out: EC-50 Cell-Free RT (virion-derived)
T1 construct: HIV-1 RT was isolated from detergent disrupted virions; made in house; host or cells: virions pelleted from culture fluid of HIV-1-infected PHA-stimulated human PBMC; DEAE-cellulose and phosphocellulose chromatography
How it was run: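 Enzyme was HIV-1 RT partially purified from virions of infected PHA-stimulated PBMC by DEAE-cellulose and phosphocellulose chromatography. Reactions at pH 8.0 with 2 mM MgCl2, 50 mM KCl, 3 μg/ml (rA)·(dT)12-18 template and 1 μM [3H]TTP, 60 min at 37 °C. IC50 from median-effect analysis.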

Friend, Spleen (EY-10) = assay: UV/XC assay for murine retroviruses in SC-1 cells; assay type: cell-based, murine retrovirus; details: Table 2, read-out: EC-50 Friend, Spleen (EY-10)
Protocol: UV/XC Assay for Murine Retroviruses Cells. Mouse embryo fibroblasts (SC-1) and XC cells were obtained from the American Type Culture Collection, Rockville, Md. The XC cell line was derived from a transplantable tumor induced in newborn White-Weston rats by the intramuscular injection of the Prague strain of Rous sarcoma virus. […] The cells were maintained in Eagle's minimum essential medium with Hanks balanced salt solution, supplemented with penicillin (100 U/ml), streptomycin (100 μg/ml), sodium bicarbonate (24 mM), Hepes (25 mM), and either 2 (maintenance) or 10 (growth) percent inactivated newborn or fetal calf serum.
Virus quantitation by UV-XC assay. The XC test (Rowe et al, Virology 42, 1136-1139, 1970) is a plaque-type of assay which tests for the presence and titer of B- and N-tropic murine leukemia viruses. Because these viruses produce no overt signs of infection of SC-1 mouse cells, it is necessary to overlay the virus producing culture with an indicator cell line, XC. The number of syncytia that are produced is a direct measure of the virus titer in FFU.
Six-well plates were seeded with 1×10^5 SC-1 mouse cells on the first day. On the following day the medium was removed and the inoculum (0.2 ml) was added in medium containing polybrene (4 μg/ml). For determining the antiviral activity of the compounds in culture, the virus dilution selected produced in untreated cultures about 80 foci per well. After 1 hour, the virus was removed and various concentrations of the drug were added. The plates were replenished with medium on the third and fifth days. The medium was removed on the eighth day and the cells exposed to UV irradiation (60 erg/mm^2 per sec) for 30 seconds. Medium containing 10^6 XC cells was then added to each plate. On the eleventh day, the plates were fixed with 10% buffered Formalin and stained with crystal violet. Comparison of the number of foci to those found in virus-infected cells receiving no drug allowed determination of whether a drug at a particular concentration was effective. Control cells without virus but receiving the drug provided an estimate of the drug's toxic effects as quantitated by using trypan blue staining.

[2] = tested on: human granulocyte-macrophage precursor cells; assay type: cell-based
Description: Preparation of Cells. Human bone marrow cells were collected by aspiration from the posterior iliac crest of normal healthy volunteers, treated with heparin and the mononuclear population separated by Ficoll-Hypaque gradient centrifugation. Cells were washed twice in Hanks balanced salt solution, counted with a hemacytometer and their viability was >98% as assessed by trypan blue exclusion.
Assay of Colony-Forming Unit Granulocyte-Macrophage (CFU-GM) for Drug Cytotoxicity. The culture assay for CFU-GM was performed using a bilayer soft-agar method as recently described (Sommadossi et al, Antimicrob. Agents Chemother. 31, 452-454, 1987). McCoy 5A nutrient medium supplemented with 15% dialyzed fetal bovine serum (heat inactivated at 56° C. for 30 min.) (Gibco Laboratories, Grand Island, N.Y.) was used in all experiments. This medium was completely lacking in thymidine and uridine. Cells were cloned in 0.3% agar in the presence of increasing concentrations of the modulating compound or in medium alone (control). After 14 days of incubation at 37° C. in a humidified atmosphere of 5% CO2 in air, colonies (≧50 cells) were counted using an inverted microscope.
The toxicities of a variety of polyoxometalates with respect to human bone marrow cells (human granulocyte-macrophage precursor cells) were assessed.

[3] = background statement; AZT in a clinical setting; cited from earlier work
SIV = assay: Activity against SIV; assay type: cell-based, simian immunodeficiency virus; details: Table 2

Molecule | pEC50 [1] | pEC50 (Friend, Spleen (EY-10)) | other results
H3PW12O40 [Formula 2] | < 4.00 | – | –
(NH4)4W10O32 [Formula 18] | 4.62 | 6.24 | –
H4SiW12O40 [Formula 3] | 4.58 | 6.77 | toxicity to human bone marrow cells (order of toxicity, FIG. 6) [2]: BT and NH4ST<AZT and ST<HPA-23
H5BW12O40 [Formula 4] | 5.59 | 6.74 | toxicity to human bone marrow cells (order of toxicity, FIG. 6) [2]: NH4BT (least toxic)<BT and NH4ST<AZT and ST
(Me4N)4W10O32 [Formula 19] | 5.00 | – | –
(ArgH^+)m(H^+)4-mST, where m=1-4 [(ARGH^+)nH^+(4−n)ST] | 4.85 | 6.00 | –
H6P2W18O62 [Formula 13] | 6.85 | – | –
Cc1cn([C@H]2C[C@H](N=[N+]=[N-])[C@@H](CO)O2)c(=O)[nH]c1=O [Formula 22, 3′-azido-3′-deoxythymidine, reference compound] | – | – | adverse effect [3]: reversible bone marrow toxicity; toxicity to human bone marrow cells (order of toxicity, FIG. 6) ([2]; human, 14 days): BT and NH4ST<AZT and ST<HPA-23; pEC50 (Friend, Spleen (EY-10); unidentified retrovirus, SC-1): 8.00; pEC50 (SIV): 8.54
(NH4)6P2W18O62 [Formula 14] | 6.89 | – | –
